Values of other authors, collected in US20030133903A1, “Compositions for treatment of prostate cancers and methods of making and using the same” (priority 2001, published 2003).

Test system: LNCaP cell line
Conditions: already published reports

IC50: low nM or sub nM
SMILES: CC(=O)O[C@H]1C(=O)[C@@]2(C)[C@H]([C@H](OC(=O)c3ccccc3)[C@]3(O)C[C@H](OC(=O)[C@H](O)[C@@H](NC(=O)c4ccccc4)c4ccccc4)C(C)=C1C3(C)C)[C@]1(OC(C)=O)CO[C@@H]1C[C@@H]2O [paclitaxel]
